Source: patent publication US10463671B2, “Combination therapy for treating cancer” (Epizyme, Inc., priority 2013, dated 2019)

Tests used:
[1] = test system: glucocorticoid signaling genes in DOHH2 cells; assay: RT2 Glucocorticoid Signaling PCR array; format: cell-based; settings: vs DMSO; DOHH2, 4 days
Method: (§1) Gene expression was normalized to array's B2M and fold change compared to DMSO was calculated using the ΔΔCt method.

[2] = test system: glucocorticoid signaling genes in WSU-DLCL2 cells; assay: RT2 Glucocorticoid Signaling PCR array; format: cell-based; settings: WSU cell line, 4 days
Method: as §1

CCN(c1cc(-c2ccc(CN3CCOCC3)cc2)cc(C(=O)NCc2c(C)cc(C)[nH]c2=O)c1C)C1CCOCC1 [Compound 44]
FKBP5 ΔΔCT [1]: −0.032 | SPSB1 ΔΔCT [1]: −0.025 | AK2 Ct Values [2]: 21.365 | ANXA4 Ct Values [2]: 24.659 | ARID5B Ct Values [2]: 26.126 | BCL6 Ct Values [2]: 20.795 | CEBPB Ct Values [2]: 26.770 | CREB3L4 Ct Values [2]: 24.392 | EHD3 Ct Values [2]: 24.270 | IL6R Ct Values [2]: 33.814 | MT2A Ct Values [2]: 23.499 | NFKBIA Ct Values [2]: 23.807 | PER2 Ct Values [2]: 24.837 | POU2F2 Ct Values [2]: 22.678 | RASA3 Ct Values [2]: 23.208 | RHOB Ct Values [2]: 27.234 | SLC22A5 Ct Values [2]: 26.640 | SNTA1 Ct Values [2]: 24.181 | SPSB1 Ct Values [2]: 26.952 | TNFAIP3 Ct Values [2]: 26.903 | TSC22D3 Ct Values [2]: 25.390 | ZFP36 Ct Values [2]: 25.541 | ZNF2B1 Ct Values [2]: 23.913 | RPLP0 Ct Values ([2]; housekeeping gene): 15.681 | HPRT1 ΔCT (B2M) ([2]; housekeeping gene, normalized to B2M): 3.108 | AMPD3 ΔCT (B2M) ([2]; normalized to B2M): 7.477 | GHRHR ΔCT (B2M) ([2]; normalized to B2M): 20.272 | GOT1 ΔCT (B2M) ([2]; normalized to B2M): 4.142 | SLC10A6 ΔCT (B2M) ([2]; normalized to B2M): 15.999 | SLC19A2 ΔCT (B2M) ([2]; normalized to B2M): 6.440 | SLC22A5 ΔCT (B2M) ([2]; normalized to B2M): 6.955 | ZNF2B1 ΔCT (B2M) ([2]; normalized to B2M): 4.228 | B2M ΔCT (B2M) ([2]; normalizer gene, normalized to B2M): 0.000 | BCL6 ΔΔCT ([2]; vs DMSO): −0.394 | CREB1 ΔΔCT ([2]; vs DMSO): 0.008 | CREB3L4 ΔΔCT ([2]; vs DMSO): −0.915 | CREB3 ΔΔCT ([2]; vs DMSO): −0.085 | DDIT4 ΔΔCT ([2]; vs DMSO): −0.060 | GOT1 ΔΔCT ([2]; vs DMSO): 0.708 | HNRPLL ΔΔCT ([2]; vs DMSO): −0.037 | IL1RN ΔΔCT ([2]; vs DMSO): −4.453 | PDP1 ΔΔCT ([2]; vs DMSO): −0.380 | PIK3R1 ΔΔCT ([2]; vs DMSO): 0.363 | POU2F2 ΔΔCT ([2]; vs DMSO): −0.680 | STAT5A ΔΔCT ([2]; vs DMSO): −0.307 | USP54 ΔΔCT ([2]; vs DMSO): 0.023 | VLDLR ΔΔCT ([2]; vs DMSO): 3.859
